This is an account of results in patent US20140295417A1, “IDENTIFICATION OF ANTIBIOTIC RESISTANCE” (priority 2011, published 2014).

For experiment [1], the system named is 23S rRNA. As to conditions: cited from earlier work.
Experiment [2] concerns HLAR, High level Aminoglycoside Resistance in Enterococci. Kind of experiment: Binding of fluorescently labelled antibiotic, resistant vs non-resistant form (Table 3). As to conditions: resistant relative to non-resistant form. The class given is cell-based. The procedure: (§1) Table 3: Antibiotic resistance mechanism in clinically relevant micro-organisms and alteration in the amount of antibiotics in resistant micro-organisms. The alteration of the amount of detectable labelled antibiotics in micro-organisms in its resistant form is determined relative to its non-resistant form. The amount is expressed in % change of fluorescence (decrease and increase, respectively) of an antibiotic which carries a fluorescent label.

Experiment [3] concerns VISA, Vancomycin intermediary SA. Described as above. As to conditions: increased binding; fluorescent-labelled antibiotic, resistant relative to non-resistant form. The class given is cell-based, Staphylococcus aureus. The procedure:
as §1

Experiment [4] concerns VRE, Vancomycin resistant Enterococci. To be noted: mechanism column; reduction of affinity in resistant form; cited from earlier work.
Experiment [5] has the same test system. The experiment in a line: Binding of fluorescently labelled antibiotic, resistant vs non-resistant form (Table 3). The class given is cell-based. To be noted: resistant relative to non-resistant form. The procedure:
as §1

For experiment [6], the system named is VRS, Vancomycin resistant Staph. The experiment is described as above. It is filed as cell-based, Staphylococci (CNS). As to conditions: increased binding; fluorescent-labelled antibiotic, resistant relative to non-resistant form. The procedure: as §1
The subject of experiment [7] is ESBL, Extended Spectrum β-Lactamase Pseudomonas spp. Described as above. As to conditions: increase of binding; fluorescent-labelled antibiotic, resistant relative to non-resistant form. The class given is cell-based. The procedure: as §1
Experiment [8] deals with ESBL, Extended Spectrum β-Lactamase Enterobacteriaceae. The experiment is described as above. The class given is cell-based. As to conditions: increase of binding; fluorescent-labelled antibiotic, resistant relative to non-resistant form. The procedure: as §1
For experiment [9], the system named is ESBL, Extended Spectrum β-Lactamase Acinetobacter. The description is as above. It is filed as cell-based. To be noted: increase of binding; fluorescent-labelled antibiotic, resistant relative to non-resistant form. The procedure: as §1
The subject of experiment [10] is ESBL, Extended Spectrum β-Lactamase Stenotrophomonas maltophilla. Described as above. The class given is cell-based. To be noted: increase of binding; fluorescent-labelled antibiotic, resistant relative to non-resistant form. The procedure: as §1
In experiment [11] the test system is ESBL, Extended Spectrum β-Lactamase BCC. The description is as above. The class given is cell-based. As to conditions: increase of binding; fluorescent-labelled antibiotic, resistant relative to non-resistant form. The procedure:
as §1

Experiment [12] deals with CA-MRSA, Community acquired MRSA. The class given is cell-based, Staphylococcus aureus. As to conditions: resistant relative to non-resistant form. The procedure: as §1
In experiment [13] the test system is MRSA, Methicillin Resistant SA. The experiment in a line: Binding of fluorescently labelled antibiotic, resistant vs non-resistant form (Table 3). It is filed as cell-based, Staphylococcus aureus. To be noted: resistant relative to non-resistant form. The procedure: as §1
The test system of experiment [14] is BORSA, Border line oxacillin resistant SA. The experiment is described as above. It is filed as cell-based, Staphylococcus aureus. To be noted: resistant relative to non-resistant form. The procedure: as §1
Experiment [15] deals with ORSA, Oxacillin resistant SA. The experiment is described as above. As to conditions: resistant relative to non-resistant form. The class given is cell-based, Staphylococcus aureus. The procedure: as §1
Where [16] appears, read: reduction of binding, fluorescent-labelled antibiotic.

Read-outs that look alike come from different tables or passages of the source. Where a SMILES comes first, the peptide text is derived from it. Bridges are numbered along the chain shown (N, C = ends). [ ]: non-standard residue; d: D form. The star is where a group is joined. NMePhe(4-NMe2) = CN[C@@H](Cc1ccc(N(C)C)cc1)C(=O)O; Pip(4-oxo) = O=C1CCN[C@H](C(=O)O)C1; Picolinoyl(3-OH) = O=C(c1ncccc1O)*; Phg = N[C@H](C(=O)O)c1ccccc1; dAbu = CC[C@@H](N)C(=O)O Where only a bound is given, the exact number is not on record here.

For the compound `[H]/N=C(/N)N[C@H]1[C@H](O)[C@@H](O)[C@H](O[C@@H]2O[C@@H](C)[C@](O)(C=O)[C@H]2O[C@@H]2O[C@@H](CO)[C@H](O)[C@@H](O)[C@@H]2NC)[C@@H](N/C(N)=N\[H])[C@@H]1O` [Streptomycin], in experiment [1] (23S rRNA position 2661, "G to C", E. coli, when expressed with Smr, hyperaccurate S12 mutation), the Phenotype entry is recorded as “streptomycin dependent”. For the same compound, the “% Change in Fluorescenc” value in experiment [2] (setting [16]) is reported as above 80% reduction. For the same compound, in [2], the “Effect of resistance on fluorescence” value is “Reduction in Streptomycin binding”.

In the case of `CN[C@H](CC(C)C)C(=O)N[C@H]1C(=O)N[C@@H](CC(N)=O)C(=O)N[C@H]2C(=O)N[C@H]3C(=O)N[C@H](C(=O)N[C@H](C(=O)O)c4cc(O)cc(O)c4-c4cc3ccc4O)[C@H](O)c3ccc(c(Cl)c3)Oc3cc2cc(c3O[C@@H]2O[C@H](CO)[C@@H](O)[C@H](O)[C@H]2O[C@H]2C[C@](C)(N)[C@H](O)[C@H](C)O2)Oc2ccc(cc2Cl)[C@H]1O` [Vancomycin], the “% Change in Fluorescenc” value in [3] was 20-50%; in [5] (setting [16]), above 80%; in [6] it was above 50%. In addition, the “Reduced affinity to Van” value in experiment [4] was “Reduced affinity to Van by 3 orders of magnitude”. Also, the “Effect of resistance on fluorescence” value in experiment [5] is “Reduction of vancomycin”.

As to `O=C(O)[C@H]1/C(=C/CO)O[C@@H]2CC(=O)N21` [clavulanic acid], the “% Change in Fluorescenc” value in experiment [7], in experiment [8], in experiment [9], in [10] and in experiment [11] was above 80% throughout.

With `CC[C@H]1OC(=O)[C@H](C)[C@@H](O[C@H]2C[C@@](C)(OC)[C@@H](O)[C@H](C)O2)[C@H](C)[C@@H](O[C@@H]2O[C@H](C)C[C@H](N(C)C)[C@H]2O)[C@](C)(O)C[C@@H](C)C(=O)[C@H](C)[C@@H](O)[C@]1(C)O` [eyrthomycin], the “Phenotype: growth rate” value in experiment [1] (23S rRNA 2017 U to G, E. coli) is “Reduced growth”.

With `CCC[C@@H]1C[C@@H](C(=O)N[C@@H]([C@H]2O[C@H](SC)[C@H](O)[C@@H](O)[C@H]2O)[C@@H](C)O)N(C)C1` [lincomycin], the Phenotype result in experiment [1] (23S rRNA position 2611, "C to G", Chlamydomonas reinhardtii (Harris et al. 1989)) is reported as “low level”; in experiment [1] (23S rRNA position 2611, "C to U", Chlamydomonas reinhardtii (Harris et al. 1989)), “low level”.

Turning to `CC[C@H]1NC(=O)[C@@H](NC(=O)c2ncccc2O)[C@@H](C)OC(=O)[C@H](c2ccccc2)NC(=O)[C@@H]2CC(=O)CCN2C(=O)[C@H](Cc2ccc(N(C)C)cc2)N(C)C(=O)[C@@H]2CCCN2C1=O` [pristinamycin 1A] ({Picolinoyl(3-OH)}-T[dAbu]P[NMePhe(4-NMe2)][Pip(4-oxo)][Phg]; ester 1-C), the “Phenotype (binding on peptidyl transferase loop)” value in [1] (23S rRNA position 2500, U2500A/C2501A, E. coli) was “Inhibits binding of 1A”; in [1] (23S rRNA position 2602, A2602C/C2501A, E. coli) it was “Inhibits binding of 1A”.

In the case of `CSC[S@+]([O-])C[C@H](CO)NC(=O)/C=C/c1c(C)[nH]c(=O)[nH]c1=O` [sparsomycin], the “Phenotype (resistance)” value in experiment [1] (23S rRNA position 2452 "C to U", Halobacterium halobium (Tan et al. 1996)) was “Low level sparsomycin”.

As for `C=C(NC(=O)C(=C)NC(=O)c1csc(C2=N[C@@H]3c4csc(n4)[C@H]4NC(=O)c5csc(n5)[C@H]([C@](C)(O)[C@@H](C)O)NC(=O)[C@H]5CSC(=N5)/C(=C/C)NC(=O)[C@H]([C@@H](C)O)NC(=O)c5csc(n5)[C@]3(CC2)NC(=O)[C@H](C)NC(=O)C(=C)NC(=O)[C@H](C)NC(=O)[C@H]([C@@H](C)CC)N[C@@H]2C=Cc3c([C@H](C)O)cc(nc3[C@H]2O)C(=O)O[C@@H]4C)n1)C(N)=O` [thiostrepton], in [1] (23S rRNA 1056 G to C, E. coli, RNA fragments), the “Phenotype: binding of thiostrepton” value is “weakened in RNA”. The “Phenotype: drug binding affinity” value is on record as “affinity is reduced similarly” in [1] (23S rRNA 1067 A to C, E. coli); “affinity is reduced similarly” in experiment [1] (23S rRNA 1067 A to G, E. coli); “affinity is reduced similarly” in [1] (23S rRNA 1067 A to U, E. coli). For the same compound, the “Phenotype: level of resistance” value in [1] (23S rRNA 1067 A to C, E. coli) is recorded as “A to C or U confers high”; in [1] (23S rRNA 1067 A to G, E. coli) it was “confers intermediate level”; in [1] (23S rRNA 1067 A to U, E. coli), “A to C or U confers high”. Also, the “Phenotype: thiostrepton resistance in poly (U) translation” value in [1] (23S rRNA 1067 A to U, E. coli, mutant constituted 30% of the total 23S rRNA pool in the ribosomes) is given as “ribosomes; exhibited 30%”.

On to `COc1cc(Cc2cnc(N)nc2N)cc(OC)c1OC` [trimethoprim], for which the “Effect of resistance on fluorescence” value in experiment [12] was “binding. Maintaims binding”.

Consider Penicillin [listing 1 of 2 here], for which the “% Change in Fluorescenc” value in experiment [13] (setting [16]), in experiment [14] (setting [16]), in [15] (setting [16]) and in [12] (setting [16]) was “> to ≈80%” throughout. The “Effect of resistance on fluorescence” value in experiment [13] was “Reduction of Penicillin binding”.

On to Penicillin [listing 2 of 2 here], for which the “Effect of resistance on fluorescence” value in experiment [14], in experiment [15] and in [12] was “Reduction of Penecillin” throughout.

Turning to spiramycin, the Phenotype result in experiment [1] (23S rRNA position 2611, "C to G", Chlamydomonas reinhardtii (Gauthier et al. 1988)) was “spiramycin resistance”; in [1] (23S rRNA position 2611, "C to G", Yeast mitochondria (Sor and Fukahara 1984)) it was “spiramycin resistance”.
